This is an account of results in patent US7217564B2, “Cytotoxic assay and new established cell line of sturgeon origin” (priority 2002, dated 2007).

Assay [1] relates to STIP-1 cells. The assay can be described thus: cells. The settings on record: for EC50: read-out: EC50 (toxicity concentration value which effects on 50% of the cells); for toxicity ranking to the STIP-1 cells: within the tested series (nine heavy metals / twelve phenols). Format: cell-based, Bester (Huso huso X Acipenser ruthenus). The text has this:
(§1) The Alamar Blue assay is one of the bioassay methods being developed to measure the cellular metabolisms of the animal cells or the like. The Alamar Blue pigment is an oxidation-reduction pigment which should be incorporated in a cell for its reduction. The Alamar Blue pigment has the characteristics to be changed from an oxidation type (non-fluorescence/blue) to a reduction type (fluorescence/red) by the reduction reaction of the respiratory metabolism system done in mitochondria. If the cellular metabolism is normal, the reduction reaction proceeds in normal. On the other hand, if the cellular metabolism becomes abnormal, the oxidation type is remained as it is. Therefore, the abnormality of a cellular metabolism can be determined by measuring the change in color. Furthermore, the measurement of a cellular metabolism may be based on the fluorescence and the light absorption. In this case the fluorescence is monitored by an excitation wavelength of 530 nm to 560 nm and a detection wavelength of 590 nm, and the light absorption is monitored at wavelengths of 570 nm and 600 nm.
Cells were cultured in a 96-well microtiter plate in a CO2 incubator (air atmosphere) at 20° C. until it became confluent. The culture was performed using a culture medium prepared by adding 10% fetal bovine serum (FBS) (manufactured by Gibco Co., Ltd.), penicillin (10 unit/ml) and streptomycin (50 μg/ml) in a Leibovitz's L15 culture medium (manufactured by Gibco Co., Ltd.).
A 0.2M aqueous solution of a specimen (cadmium chloride, CdCl2.2H2O) was prepared and was then sterilized by passing through a filter of 0.2 μm in pore size to be preserved at 4° C. […] For a comparison example, the culture medium in the absence of the specimen was inoculated in a well. After 24 hours passed, an Alamar Blue pigment was added and an additional culture was continued for further 24 hours.
Subsequently, by using a microplate reader, the light absorbance of each well was measured using two wavelengths (570 nm and 600 nm). The inhibition value of a cellular metabolism with the cadmium aqueous solution was measured as a reduction rate of a well (a sample) inoculated with a cadmium aqueous solution to a well only containing the culture medium as a control. The calculation was performed using the following equation.
A=sample well (A570 nm−A600 nm)−blank well (A570 nm−A600 nm), and
B=control well (A570 nm−A600 nm)−blank well (A570 nm−A600 nm).
In addition, (A/B)×100 means a survival rate (%) of cells.
(B) Evaluations of toxicities of eight kinds of heavy metals except of cadmium to the STIP-1 cells were performed by the same way as described in the above (A).

Assay [2] relates to STIP-3 cells. The assay can be described thus: Cytotoxic test using STIP-3 cells, Alamar Blue assay. Format: cell-based, Bester (Huso huso X Acipenser ruthenus). The note with it: 20° C., 24 hours with specimen, then Alamar Blue for further 24 hours, read-out: EC50 (toxicity concentration value which effects on 50% of the cells).
Description: as §1
Cells were cultured in a 96-well microtiter plate in a CO2 incubator (air atmosphere) at 20° C. until it became confluent. […]
Subsequently, by using a microplate reader, the light absorbance of each well was measured using two wavelengths (570 nm and 600 nm). […]

Setting [3] is: Huso huso, STIP-1 cells, 20° C., 24 hours with specimen, then Alamar Blue for further 24 hours.
The mark [4] stands for this setting: STIP-1 cells, 20° C., 24 hours with specimen, then Alamar Blue for further 24 hours.

Read-outs that look alike come from different tables or passages of the source.

As for `O.O.O.O.[Cl][Mn][Cl]` [MnCl2.4H2O], in assay [1], the “toxicity to the STIP-1 cells more than that to the culture cells of other fish origins” value was “about 10 times” and the EC50 worked out at 400 µM.

With `Oc1c(Cl)cc(Cl)c(Cl)c1Cl` [2,3,4,6-tetrachlorophenol], the EC50 in assay [1] (setting [3]) came to 9 µM.

`Oc1ccc(Cl)cc1` [p-chlorophenol]: the EC50 in assay [1] (setting [3]) came to 800 µM.

Take `Oc1ccccc1` [Phenol]: in assay [1] (Huso huso, 24 h), the EC50 is 8600 µM.

Consider `Oc1cc(Cl)c(Cl)cc1Cl` [2,4,5-trichlorophenol], for which, in assay [1] (setting [3]), the EC50 is 7 µM. Besides, the “toxicity ranking to the STIP-1 cells” value in assay [1] was “strongest toxicity”.

Take `[Cl][Ni][Cl]` [NiCl2.6H2O]: the EC50 in assay [1] was greater than 10000 µM.

As to `[Cl][Cu][Cl]` [CuCl2.2H2O], in assay [1] (setting [4]), the EC50 worked out at 1320 µM.

For `Oc1c(Cl)cccc1Cl` [2,6-dichlorophenol], in assay [1] (setting [3]), the EC50 turned out to be 900 µM.

Turning to `Oc1cccc(Cl)c1Cl` [2,3-dichlorophenol], the EC50 in assay [1] (setting [3]) turned out to be 80 µM.

`[Cl][Cd][Cl]` [cadmium, cadmium chloride]: the EC50 worked out at 100 µM in assay [2] and 89 µM in assay [1] (setting [4]).

Take `[Cl-].[Cl-].[Co+2]` [CoCl2.6H2O]: the EC50 in assay [1] (setting [4]) was determined as 2200 µM.

As for HgCl2, the EC50 in assay [1] was determined as 85 µM.

Take `O=S(=O)([O-])[O-].[Zn+2]` [ZnSO4.7H2O]: in assay [1] (setting [4]), the EC50 came out at 400 µM.

On to `Oc1ccc(Cl)cc1Cl` [2,4-dichlorophenol], for which the EC50 in assay [1] (setting [3]) amounted to 55 µM.

Turning to `Oc1ccc(Cl)c(Cl)c1` [3,4-dichlorophenol], the EC50 in assay [1] (setting [3]) came to 30 µM.

Regarding `O=[N+]([O-])[O-].O=[N+]([O-])[O-].[Pb+2]` [Pb(NO3)2], in assay [1] (setting [4]), the EC50 stood at 3300 µM.

As for Tributyl tin, the EC50 amounted to 0.9 µM in assay [1] (STIP-1 cells, 20° C., 24 hours with specimen, then Alamar Blue for further 24 hours, listed as tributyl tin) and 0.9 µM in assay [1] (setting [4]). In addition, in assay [1] (STIP-1 cells, compared with other heavy metals), the “toxicity at a concentration lower than other heavy metals” value is “about 100 times”. In assay [1], the “toxicity ranking to the STIP-1 cells” value is “strongest toxicity”.

For `O=[N+]([O-])c1ccc(O)cc1` [p-nitrophenol], in assay [1] (setting [3]), the EC50 was 350 µM.

With `Oc1c(Cl)c(Cl)c(Cl)c(Cl)c1Cl` [Pentachlorophenol], the EC50 in assay [1] (setting [3]) is 90 µM.

Consider `Oc1cc(Cl)ccc1Cl` [2,5-dichlorophenol], for which the EC50 in assay [1] (setting [3]) was 56 µM.
